Data as given in patent publication US11352374B2 (University of Alaska Anchorage, priority 2015, dated 2022).

How the values were obtained:
[1] = tested on: normal fibroblast cells (Hs 895.Sk); test: Anti-tumor effect of CORCB-1 in the presence of ROS, normal cells; type: cell-based, human; details: 1 mM CORCB-1 + 0.2 mM H2O2, 6 days
Experimental: (§1) To further test the anti-tumor effect of CORCBs in the presence of ROS, fibroblast tumor cells (Hs 895.T) and normal fibroblast cells (Hs 895.Sk) were incubated with 1 mM of CORCB-1 and 0.2 mM of H2O2 mixed in the DMEM media without FBS. Media was exchanged every 2 days for longer incubation periods such as 4 and 6 days. […] Both tumor and normal cells are close to 100% viable at 2 days, but for longer treatment periods, tumor cells growth rate declines and normal cell growth remains steady. […] Normal cells are preserved under stressed condition while tumor cells are destroyed.

[2] = as above; type: cell-based, human; details: human, Hs 895.Sk normal fibroblast cells; 1 mM CORCB-1 + 0.2 mM H2O2, 2 days; read-out: % viable normal cells at 2 days
Experimental: as §1

[3] = tested on: normal human skin fibroblast cells (Hs 895.Sk); details: CORCB-1 (3 mM) + imatinib 20 or 40 μM, day 4 and 6
Experimental: This was tested by using a chemotherapy drug, imatinib, in normal human skin fibroblast cells (Hs 895.Sk). The cultures were treated with 20 μM and 40 μM concentration of imatinib as controls to see their toxicity. Samples with mixtures of CORCB-1 and imatinib were also incubated and cell viability was determined on 2, 4, and 6 days. Media was exchanged every 2 days with fresh reagents.

[4] = tested on: LPS-induced TNF-α production in mouse macrophage cells (RAW264.7); test: Inhibition of LPS-induced TNF-α production (ELISA); type: cell-based
Experimental: To test the anti-inflammatory effect of CORCBs, mouse macrophage cells (RAW264.7) were used. 2×10^4 cells per well was seeded in 96-well plate with different concentrations of CORCBs. Cells were incubated in DMEM with 10% FBS at 37° C. and 5% CO2 for 24 hours. LPS (100 ng/mL) was then added and incubated for 4 additional hours. The media containing secreted inflammatory cytokines were collected and these cells were subjected to cell viability test to check their viability. TNF-α concentration in each sample was measured by ELISA assay.

[5] = CO released on auto-decomposition in water at 37° C., head space measured with CO meter; type: physicochemical
Experimental: (§2) A test to confirm that CO is one of the decomposition products from CORCBs is done by utilizing commercially available CO meter. Four mole of the compounds at the concentrations of 6-12 mg/mL in aqueous solution was incubated at 37° C. in a sealed vessel with 50 mL gas space. CO meter was used to read the concentration of liberated CO gas from the solution. Measurement by CO meter in ppm, after converting to the micromole amount, was used for calculating the percent CO released based on the original amount of compound.
CO liberated from the molecules and coming out to the head space are detected and quantified by using CO meter.

[6] = tested on: horse Mb; test: Myoglobin (Mb) assay: deoxy-Mb to carboxy-Mb; type: biochemical; details: in one hour; 69 μM deoxy-Mb, 50× excess compound, 37° C.; compound per FIG. 2 legend
Experimental: Since there was no literature that reported the use of CO meter with CO releasing molecules, to further confirm that CORCBs release CO, Mb assay was performed using the standard procedure used with other CO releasing compounds. In brief, 1 mM horse Mb in 50 mM sodium phosphate buffer (pH 7.4) was deoxygenated using 3 equivalents of sodium dithionite. Excess dithionite was removed by desalting column. Deoxy-Mb at the concentration of 69 μM was mixed with CORM (50× excess) and incubated in 37° C. Visible spectra in the range of 550-600 nm were recorded at every 10 minutes. Overlaid spectra of these samples show a gradual transformation of deoxy-Mb to carboxy-Mb (FIG. 2). The percent CO released calculated was approximately 1% in one hour.

[7] = tested on: fibroblast tumor cells (Hs 895.T) and normal fibroblast cells (Hs 895.Sk)
Experimental: Cells were seeded at the density of 3×10^3 cells per well in 96-well plate with different concentrations of CORCBs in DMEM media without FBS, and incubated at 37° C. with 5% CO2 for 2 days.

[8] = tested on: LPS-induced TNF-α production in RAW264.7 cells; test: LPS-induced TNF-α production with CORCB plus H2O2; type: cell-based, mouse
Experimental: RAW264.7 cells at the density of 2×10^4 cells per well in 96-well plate were treated with varying concentrations of CORCB plus different concentrations of H2O2.

[9] = CO released in the presence of H2O2, CO meter; type: physicochemical
Experimental: as §2
(§3) The two tested are the common ROS formed naturally in the cells—a non-radical hydrogen peroxide (H2O2) and Fenton reagent which is a more reactive hydroxyl radical (.OH) formed from Fe^2+ and H2O2. Four mole of CORCB compounds were mixed in an aqueous solution with ROS and incubated in a sealed vessel. At respective times, the head space air was injected into the meter to read the amount of CO produced. For analysis by NMR spectroscopy, the reaction mixture was prepared in NMR tube in D2O solvent and incubated for the amount of time indicated.

[10] = physchem
Experimental: The kinetics of compound decomposition was followed by observing the ratio of the amount of free amine group to the original compound using ^1H NMR. For instance, Hexamethylenetetramine carboxyborane (CORCB-1) in D2O at the concentration of 12 mg/mL was incubated at 37° C. in the standard NMR tube. ^1H NMR spectra were obtained at different time points to study the kinetics of product formation. […] The ratio of integrated peaks were used for determining the percent of each species present and plotted as a function of time to show the kinetics of auto-decomposition.
^1H, ^11B, and ^13C NMR spectra were recorded at different time points to study the kinetics as well as to observe transformation of CORCB-1 into the products.
In order to determine whether CO is produced in physiological condition, CORCB acid forms were dissolved in aqueous solution at neutral pH. The solution was then subjected to incubation at 37° C. for extended period of time. For studies using NMR, CORCBs were dissolved in D2O. The kinetics of CORCB molecules breaking down to produce CO is determined by taking ^1H NMR spectra at various time points (FIG. 3).
CORCB sodium and ammonium salts were also tested for decomposition by using ^1H NMR spectroscopy. Samples were set up as in Example 1 and rate of decomposition measured (FIG. 4).

[11] = CO released in the presence of Fenton reagent (hydroxyl radical), CO meter; type: physicochemical; details: per 5 minutes
Experimental: as §2
as §3, with “All amine carboxyboranes express a faster CO release rate when incubated with the reactive oxygen species. The” for “The”, “indicated. While some CORCBs have increased amount of CO produced when treated with 3 times equivalents of H2O2, CORCB-1 produces similar or less amount of CO. In every sample, either acid or salt form, the hydroxyl radical extracts the amount of CO to a much higher magnitude within a very short amount of time.” for “indicated.”

[12] = Decomposition (amine release) in the presence of H2O2 monitored by 1H NMR; type: physicochemical
Experimental: as §3
The reaction with H2O2 is slow-acting, therefore, NMR spectroscopy can be used for monitoring the rate.

[13] = tested on: RAW264.7 cells
Experimental: To test the anti-inflammatory effect of CORCBs, mouse macrophage cells (RAW264.7) were used. 2×10^4 cells per well was seeded in 96-well plate with different concentrations of CORCBs. Cells were incubated in DMEM with 10% FBS at 37° C. and 5% CO2 for 24 hours. LPS (100 ng/mL) was then added and incubated for 4 additional hours. The media containing secreted inflammatory cytokines were collected and these cells were subjected to cell viability test to check their viability.
Cytotoxicity of CORCBs was tested with RAW264.7 cells using Cell Titer Blue assay. In brief, cells were seeded at the density of 2×10^4 cells per well in 96-well plate with different concentrations of CORCBs. Cells were incubated in DMEM with 10% FBS at 37° C. and 5% CO2 for 24 hours. Cell Titer Blue reagent was added into the wells and incubated for 4 more hours in the normal cell growth conditions. The fluorescence signal of the converted reagent resulted from the viable cells was measured.

[14] = CO generated at different pHs, CO meter; type: physicochemical; details: compound per FIG. 10 legend
Experimental: FIG. 10 graphically depicts the percent CO generated by CORCB-1 in different pHs monitored by the CO meter. CORCB was dissolved in water with adjusted pH before incubation in 37° C. After 12 hours, CO gas in the head space was analyzed using a CO meter.
CO releasing property of CORCBs is not limited only to the neutral environment. It works in any pH ranging from 2 to 12 as evident in FIG. 10. […] CO is released at the highest amount in the acidic condition of pH 2 with more than 25% in 12 hours.

[15] = 24 hours, 1.5 equivalents H2O2, 37° C.

SMILES: O=C(O)B[N+]12CN3CN(CN(C3)C1)C2 [CORCB-1, Hexamethylenetetramine carboxyborane]
- normal cell growth, 6th day [1]: 89%
- viability at 2 days, 1 mM [2]: ~100%
- survival rate, mixture of imatinib and CORCB-1 [3]: around 70%
- amount of TNF-α secreted, compound alone ([4]; 1 mM, LPS only = 100%): about 80%
- effect on LPS-induced TNF-α production (in words) ([4]; 24 hours compound, then LPS 100 ng/mL 4 hours): inhibits the production of TNF-α
- CO release rate ([5]; 37° C.): approximately 1 % per hour
- % CO liberated at 24 hours by CO meter ([5]; 24 hours, 37° C.): 23%
- CO release rate at 24 hours, CO meter, Autodecomposition ([5]; 24 hours, 37° C.): 24%
- Rate of % CO released by CORCBs, Autodecomposition ([5]; per 24 hour): 23.47 ± 0.38%
- percent CO released (Mb assay) [6]: approximately 1%
- selectivity of growth stimulation (in words) ([7]; Hs 895.Sk versus Hs 895.T, 48 hours): more selective towards the normal fibroblast cells
- viable cells compared with untreated cells ([7]; human, 48 h): ~180%
- amount of TNF-α secreted, together with H2O2 [8]: about 25%
- % CO produced by CO meter with H2O2 ([9]; 1.5 equivalents H2O2, 24 hours): 12%
- CO release rate at 24 hours, CO meter, With 1.5x H2O2 [9, 15]: 12.10%
- Rate of % CO released by CORCBs, With H2O2 ([9]; per 24 hour, H2O2 equivalents not given): 20.86 ± 0.82%
- half-life at 12 mg/mL [10]: 84 h
- Decomposition rate at 24 hours, 1H NMR, Autodecomposition ([10]; 24 hours, 37° C.): 19%
- rate of auto-decomposition ([10]; as stated in Example 10): around 20 % per day
- rate of decomposition ([10]; in the beginning, acid form, D2O, 37° C.): 0.85 % per hour
- Rate of % CO released by CORCBs, With Fenton Reagent [11]: 60.90 ± 0.52%
- % decomposition / free amine released by 1H NMR with H2O2 ([12]; 1.5 equivalents H2O2, 24 hours): 51%
- Decomposition rate at 24 hours, 1H NMR, With 1.5x H2O2 [12, 15]: 50.90%
- cell viability after the TNF-α assay (in words) [13]: all cells were still healthy
- CO released at pH 2 ([14]; pH 2, 12 hours, 37° C.): more than 25%
- CO release rate as a function of pH (in words) ([14]; pH 2 to 12, 12 hours): the lowest in pH 7
